Numbered stars: 1 amine (or outer) side, 2 acyl side, 3 side chain; on linkers, the order of the positions; unused ones are H or OH. Square brackets hold non-standard residues; d marks the D form. Peptide text beside a SMILES is read from it. * marks the point of attachment. Pro(trans-4-F) = O=C(O)[C@@H]1C[C@@H](F)CN1; Pro(cis-4-F) = O=C(O)[C@@H]1C[C@H](F)CN1; Pro(4,4-F2) = O=C(O)[C@@H]1CC(F)(F)CN1; Dab(3S-OH) = NC[C@H](O)[C@H](N)C(=O)O; X4 = N=C(N)NCC/C=C(/N[*:1])C(=O)[*:2]; Ethylenediamine = C(CN[*:2])N[*:1]; ΔZArg = N=C(N)NCC/C=C(\N)C(=O)O; NMeK = CN[C@@H](CCCCN)C(=O)O; dOrn = NCCC[C@@H](N)C(=O)O; Pip = O=C(O)[C@@H]1CCCCN1; Dab = NCC[C@H](N)C(=O)O; NH(CH2)5NH2 = NCCCCCN*; NH(CH2)4NH2 = NCCCCN*
What was measured:
Test in all cases: MIC, broth microdilution (CLSI), reference strain
Settings in all cases: CAMHB
[1] = system: Pseudomonas aeruginosa ATCC 27853
[2] = system: Staphylococcus aureus ATCC 13709
[3] = system: Escherichia coli ATCC 25922
[4] = system: Acinetobacter baumannii ATCC 19606

N=C(N)NCC/C=C(\NC(=O)[C@H](CCCCN)NC(=O)[C@H](Cc1cnc[nH]1)NC(=O)[C@@H]1CCCN1C(=O)[C@@H](CCCN)NC(=O)CNC(=O)[C@H](CCN)NC(=O)[C@H](CCN)NC(=O)[C@@H](N)CCCCN)C(=O)N[C@@H](CCCCN)C(=O)NCCCCN [11.1] (H-K[Dab][Dab]G[dOrn]PHK[ΔZArg]K-{NH(CH2)4NH2})
Pa: MIC Pseudomonas aeruginosa ATCC 27853 [1]: − (>32 μg/mL) | Sa: MIC Staphylococcus aureus ATCC 13709 [2]: ++ (≤8 μg/mL) | Ec: MIC Escherichia coli ATCC 25922 [3]: − (>32 μg/mL) | Ab: MIC Acinetobacter baumannii ATCC 19606 [4]: − (>32 μg/mL)

N=C(N)NCC/C=C(\NC(=O)[C@H](CCCCN)NC(=O)[C@H](Cc1cnc[nH]1)NC(=O)[C@@H]1CCCN1C(=O)[C@@H](CCCN)NC(=O)CNC(=O)[C@@H](NC(=O)[C@H](CCN)NC(=O)[C@@H](N)CCCCN)[C@@H](O)CN)C(=O)N[C@@H](CCCCN)C(=O)NCCCCN [12.1] (H-K[Dab][Dab(3S-OH)]G[dOrn]PHK[ΔZArg]K-{NH(CH2)4NH2})
Pa: MIC Pseudomonas aeruginosa ATCC 27853 [1]: − (>32 μg/mL) | Sa: MIC Staphylococcus aureus ATCC 13709 [2]: ++ (≤8 μg/mL) | Ec: MIC Escherichia coli ATCC 25922 [3]: − (>32 μg/mL) | Ab: MIC Acinetobacter baumannii ATCC 19606 [4]: − (>32 μg/mL)

N=C(N)NCC/C=C(\NC(=O)[C@H](CCCCN)NC(=O)[C@H](Cc1cnc[nH]1)NC(=O)[C@@H]1CCCN1C(=O)[C@@H](CCCN)NC(=O)CNC(=O)CNC(=O)[C@H](CCN)NC(=O)[C@@H](N)CCCCN)C(=O)N[C@@H](CCCCN)C(=O)NCCCCN [13.1] (H-K[Dab]GG[dOrn]PHK[ΔZArg]K-{NH(CH2)4NH2})
Pa: MIC Pseudomonas aeruginosa ATCC 27853 [1]: − (>32 μg/mL) | Sa: MIC Staphylococcus aureus ATCC 13709 [2]: + (≤32 μg/mL) | Ec: MIC Escherichia coli ATCC 25922 [3]: − (>32 μg/mL) | Ab: MIC Acinetobacter baumannii ATCC 19606 [4]: − (>32 μg/mL)

C[C@H](NC(=O)[C@H](CCN)NC(=O)[C@@H](N)CCCCN)C(=O)NCC(=O)N[C@H](CCCN)C(=O)N1CCC[C@H]1C(=O)N[C@@H](Cc1cnc[nH]1)C(=O)N[C@@H](CCCCN)C(=O)N/C(=C/CCNC(=N)N)C(=O)N[C@@H](CCCCN)C(=O)NCCCCN [14.1] (H-K[Dab]AG[dOrn]PHK[X4]K-{NH(CH2)4NH2})
Pa: MIC Pseudomonas aeruginosa ATCC 27853 [1]: − (>32 μg/mL) | Sa: MIC Staphylococcus aureus ATCC 13709 [2]: ++ (≤8 μg/mL) | Ec: MIC Escherichia coli ATCC 25922 [3]: + (≤32 μg/mL) | Ab: MIC Acinetobacter baumannii ATCC 19606 [4]: − (>32 μg/mL)

C[C@H](NC(=O)[C@H](CCN)NC(=O)[C@@H](N)CCCCN)C(=O)NCC(=O)N[C@H](CCCN)C(=O)N1CCC[C@H]1C(=O)N[C@@H](Cc1cnc[nH]1)C(=O)N[C@@H](CCCCN)C(=O)N/C(=C\CCNC(=N)N)C(=O)N[C@@H](CCCCN)C(=O)NCCCCN [14.2] (H-K[Dab]AG[dOrn]PHK[ΔZArg]K-{NH(CH2)4NH2})
Pa: MIC Pseudomonas aeruginosa ATCC 27853 [1]: − (>32 μg/mL) | Sa: MIC Staphylococcus aureus ATCC 13709 [2]: ++ (≤8 μg/mL) | Ec: MIC Escherichia coli ATCC 25922 [3]: + (≤32 μg/mL) | Ab: MIC Acinetobacter baumannii ATCC 19606 [4]: − (>32 μg/mL)

C[C@H](NC(=O)[C@H](CCN)NC(=O)[C@@H](N)CCCCN)C(=O)NCC(=O)N[C@H](CCCN)C(=O)N1C[C@@H](F)C[C@H]1C(=O)N[C@@H](Cc1cnc[nH]1)C(=O)N[C@@H](CCCCN)C(=O)N/C(=C\CCNC(=N)N)C(=O)N[C@@H](CCCCN)C(=O)NCCCCN [14.4] (H-K[Dab]AG[dOrn][Pro(cis-4-F)]HK[ΔZArg]K-{NH(CH2)4NH2})
Pa: MIC Pseudomonas aeruginosa ATCC 27853 [1]: − (>32 μg/mL) | Sa: MIC Staphylococcus aureus ATCC 13709 [2]: ++ (≤8 μg/mL) | Ec: MIC Escherichia coli ATCC 25922 [3]: − (>32 μg/mL) | Ab: MIC Acinetobacter baumannii ATCC 19606 [4]: − (>32 μg/mL)

C[C@H](NC(=O)[C@H](CCN)NC(=O)[C@@H](N)CCCCN)C(=O)NCC(=O)N[C@H](CCCN)C(=O)N1CCC[C@H]1C(=O)N[C@@H](Cc1cnc[nH]1)C(=O)N[C@@H](CCCCN)C(=O)N/C(=C\CCNC(=N)N)C(=O)N[C@@H](CCCCN)C(=O)NCCCCCN [14.5] (H-K[Dab]AG[dOrn]PHK[ΔZArg]K-{NH(CH2)5NH2})
Pa: MIC Pseudomonas aeruginosa ATCC 27853 [1]: − (>32 μg/mL) | Sa: MIC Staphylococcus aureus ATCC 13709 [2]: ++ (≤8 μg/mL) | Ec: MIC Escherichia coli ATCC 25922 [3]: + (≤32 μg/mL) | Ab: MIC Acinetobacter baumannii ATCC 19606 [4]: − (>32 μg/mL)

C[C@H](NC(=O)[C@H](CCN)NC(=O)[C@@H](N)CCCCN)C(=O)NCC(=O)N[C@H](CCCN)C(=O)N1CCC[C@H]1C(=O)N[C@@H](Cc1cnc[nH]1)C(=O)N[C@@H](CCCCN)C(=O)N/C(=C\CCNC(=N)N)C(=O)N[C@@H](CCCCN)C(=O)NCCN [14.6] (H-K[Dab]AG[dOrn]PHK[ΔZArg]K-Ethylenediamine)
Pa: MIC Pseudomonas aeruginosa ATCC 27853 [1]: − (>32 μg/mL) | Sa: MIC Staphylococcus aureus ATCC 13709 [2]: ++ (≤8 μg/mL) | Ec: MIC Escherichia coli ATCC 25922 [3]: + (≤32 μg/mL) | Ab: MIC Acinetobacter baumannii ATCC 19606 [4]: − (>32 μg/mL)

C[C@H](NC(=O)[C@H](CCN)NC(=O)[C@@H](N)CCCCN)C(=O)NCC(=O)N[C@H](CCCN)C(=O)N1C[C@H](F)C[C@H]1C(=O)N[C@@H](Cc1cnc[nH]1)C(=O)N[C@@H](CCCCN)C(=O)N/C(=C\CCNC(=N)N)C(=O)N[C@@H](CCCCN)C(=O)NCCCCN [14.7] (H-K[Dab]AG[dOrn][Pro(trans-4-F)]HK[ΔZArg]K-{NH(CH2)4NH2})
Pa: MIC Pseudomonas aeruginosa ATCC 27853 [1]: − (>32 μg/mL) | Sa: MIC Staphylococcus aureus ATCC 13709 [2]: ++ (≤8 μg/mL) | Ec: MIC Escherichia coli ATCC 25922 [3]: − (>32 μg/mL) | Ab: MIC Acinetobacter baumannii ATCC 19606 [4]: − (>32 μg/mL)

CN[C@@H](CCCCN)C(=O)N[C@@H](CCN)C(=O)N[C@@H](C)C(=O)NCC(=O)N[C@H](CCCN)C(=O)N1CCC[C@H]1C(=O)N[C@@H](Cc1cnc[nH]1)C(=O)N[C@@H](CCCCN)C(=O)N/C(=C\CCNC(=N)N)C(=O)N[C@@H](CCCCN)C(=O)NCCCCN [14.9] (H-[NMeK][Dab]AG[dOrn]PHK[ΔZArg]K-{NH(CH2)4NH2})
Pa: MIC Pseudomonas aeruginosa ATCC 27853 [1]: − (>32 μg/mL) | Sa: MIC Staphylococcus aureus ATCC 13709 [2]: ++ (≤8 μg/mL) | Ec: MIC Escherichia coli ATCC 25922 [3]: − (>32 μg/mL) | Ab: MIC Acinetobacter baumannii ATCC 19606 [4]: − (>32 μg/mL)

C[C@H](NC(=O)[C@H](CCN)NC(=O)[C@@H](N)CCCCN)C(=O)NCC(=O)N[C@H](CCCN)C(=O)N1CC(F)(F)C[C@H]1C(=O)N[C@@H](Cc1cnc[nH]1)C(=O)N[C@@H](CCCCN)C(=O)N/C(=C\CCNC(=N)N)C(=O)N[C@@H](CCCCN)C(=O)NCCCCN [14.10] (H-K[Dab]AG[dOrn][Pro(4,4-F2)]HK[ΔZArg]K-{NH(CH2)4NH2})
Pa: MIC Pseudomonas aeruginosa ATCC 27853 [1]: − (>32 μg/mL) | Sa: MIC Staphylococcus aureus ATCC 13709 [2]: ++ (≤8 μg/mL) | Ec: MIC Escherichia coli ATCC 25922 [3]: − (>32 μg/mL) | Ab: MIC Acinetobacter baumannii ATCC 19606 [4]: − (>32 μg/mL)

C[C@H](NC(=O)[C@H](CCN)NC(=O)[C@@H](N)CCCCN)C(=O)NCC(=O)N[C@H](CCCN)C(=O)N1CCC[C@H]1C(=O)N[C@@H](Cc1cnc[nH]1)C(=O)N[C@@H](CCCCN)C(=O)N/C(=C\CCNC(=N)N)C(=O)N[C@H](CCCCN)C(=O)NCCCCN [14.11] (H-K[Dab]AG[dOrn]PHK[ΔZArg][dK]-{NH(CH2)4NH2})
Pa: MIC Pseudomonas aeruginosa ATCC 27853 [1]: − (>32 μg/mL) | Sa: MIC Staphylococcus aureus ATCC 13709 [2]: ++ (≤8 μg/mL) | Ec: MIC Escherichia coli ATCC 25922 [3]: − (>32 μg/mL) | Ab: MIC Acinetobacter baumannii ATCC 19606 [4]: − (>32 μg/mL)

C[C@H](NC(=O)[C@H](CCN)NC(=O)[C@@H](N)CCCCN)C(=O)NCC(=O)N[C@H](CCCN)C(=O)N1CCC[C@H]1C(=O)N[C@@H](Cc1cnc[nH]1)C(=O)N[C@@H](CCCCN)C(=O)N/C(=C\CCNC(=N)N)C(=O)N[C@@H](CCCCN)C(N)=O [14.12] (H-K[Dab]AG[dOrn]PHK[ΔZArg]K-NH2)
Pa: MIC Pseudomonas aeruginosa ATCC 27853 [1]: − (>32 μg/mL) | Sa: MIC Staphylococcus aureus ATCC 13709 [2]: ++ (≤8 μg/mL) | Ec: MIC Escherichia coli ATCC 25922 [3]: + (≤32 μg/mL) | Ab: MIC Acinetobacter baumannii ATCC 19606 [4]: − (>32 μg/mL)

C[C@H](NC(=O)[C@H](CCN)NC(=O)[C@@H](N)CCCCN)C(=O)NCC(=O)N[C@H](CCCN)C(=O)N1CCCC[C@H]1C(=O)N[C@@H](Cc1cnc[nH]1)C(=O)N[C@@H](CCCCN)C(=O)N/C(=C\CCNC(=N)N)C(=O)N[C@@H](CCCCN)C(=O)NCCCCN [14.13] (H-K[Dab]AG[dOrn][Pip]HK[ΔZArg]K-{NH(CH2)4NH2})
Pa: MIC Pseudomonas aeruginosa ATCC 27853 [1]: − (>32 μg/mL) | Sa: MIC Staphylococcus aureus ATCC 13709 [2]: ++ (≤8 μg/mL) | Ec: MIC Escherichia coli ATCC 25922 [3]: + (≤32 μg/mL) | Ab: MIC Acinetobacter baumannii ATCC 19606 [4]: − (>32 μg/mL)

C[C@H](NC(=O)[C@@H](NC(=O)[C@@H](N)CCCCN)[C@@H](O)CN)C(=O)NCC(=O)N[C@H](CCCN)C(=O)N1CCC[C@H]1C(=O)N[C@@H](Cc1cnc[nH]1)C(=O)N[C@@H](CCCCN)C(=O)N/C(=C\CCNC(=N)N)C(N)=O [24.5] (H-K[Dab(3S-OH)]AG[dOrn]PHK[ΔZArg]-NH2)
Pa: MIC Pseudomonas aeruginosa ATCC 27853 [1]: − (>32 μg/mL) | Ab: MIC Acinetobacter baumannii ATCC 19606 [4]: − (>32 μg/mL)

C[C@H](NC(=O)[C@@H](NC(=O)[C@@H](N)CCCCN)[C@@H](O)CN)C(=O)NCC(=O)N[C@H](CCCN)C(=O)N1CCC[C@H]1C(=O)N[C@@H](Cc1cnc[nH]1)C(=O)N[C@@H](CCCCN)C(=O)N/C(=C\CCNC(=N)N)C(N)=O [24.125] (H-K[Dab(3S-OH)]AG[dOrn]PHK[ΔZArg]-NH2)
Sa: MIC Staphylococcus aureus ATCC 13709 [2]: ++ (≤8 μg/mL) | Ec: MIC Escherichia coli ATCC 25922 [3]: ++ (≤8 μg/mL)

Source: patent US10626144B2, “Peptide derivatives and uses thereof” (Nosopharm, priority 2014, dated 2020)
